# Measurements: patent publication US10385036B2, “Sulfonamide-substituted indole modulators of RORC2 and methods of use thereof” (Pfizer Inc., priority 2015, dated 2019)
# Assays:
# [1] = tested on: IL-17 production from human Th17 cells; assay: Assay of IL-17 production from human Th17 cells; assay type: cell-based; settings: 144 h; IL-17A in supernatant by ELISA (MSD) after 6 days, human CD4+ T cells differentiated into Th17; read-out: IC50
# Protocol: The activity of compound of the invention can be also be determined by an IL-17 production from human Th17 cells assay. In general, this assay measures blockade of IL-17 production, the signature cytokine of T helper 17 (Th17) cells, by compounds. Purified human CD4+ T cells are stimulated with anti-CD3+anti-CD28 and incubated with a cytokine cocktail that induce their differentiation into Th17 in the absence or presence of various concentrations of compound. After 6 days, IL-17A concentration is measured in the cell culture supernatant with an ELISA kit (MSD).
# Preparation of human CD4+ T cells. CD4+ T cells were purified from buffy coats from healthy donors (obtained from Massachusetts General Hospital) by negative selection the following procedure: Mixing 25 mL of blood with 1 mL of Rosette Sep CD4+ T cell enrichment cocktail (StemCell Technologies) followed by application of a layer of 14 mL Ficoll Paque Plus (Amersham GE Healthcare) and subsequent centrifugation at 1200 g for 20 min at room temperature. The Ficoll layer was then harvested and washed with phosphate saline buffer containing 2% (v/v) fetal bovine serum and cells were resuspended with RPMI medium containing 10% (v/v) fetal bovine serum and 10% (v/v) DMSO, frozen and kept in LN2 until used.
# […] Serial dilutions of compounds of the invention are prepared at 10× final concentration in X-Vivo15 medium containing 3% (v/v) DMSO.
# On the second day of the assay, a 384-well tissue culture plate was coated with 10 μg/mL anti-hCD3 (eBioscience) at 50 μL/well. After 2 hr at 37° C., the supernatant is discarded and the coated plates are kept in a sterile tissue culture hood.
# The cytokine plus anti-CD28 cocktail with CD4+ cells is prepared such that the cocktail is diluted 10-fold and cell density is 0.22×10^6/mL. The mixture is incubated 1 hr at 37° C.
# 90 μL (20,000 cells) dispensed per well in the anti-hCD3 coated plate prepared as noted above.
# 10 μL 10× compound is added per well (final DMSO=0.3%) from the compound plate that was previously prepared, followed by 6 days of incubation in a tissue culture vessel in a humidified chamber at 37° C. and 5% CO2.
# Measurement is carried out in a Sector Imager 6000 by the same manufacturer. Signal units from the instrument are converted to pg/mL using a calibration curve with known amounts of IL-17A. IC50 values of test compounds (Table 2) are determined by the non-linear regression analysis of dose response curves.
# [2] = target: RORC2 ligand binding domain (6-His-RORC2 LBD) (Homo sapiens (Human), UniProt P51449); assay: Assay of co-activator recruitment by TR-FRET; assay type: biochemical; settings: 6-His-RORC2 LBD / biotin-coactivator peptide SRC1-2 interaction, 3 hr room temperature
# Protocol: The activity of compound of the invention can be determined by a co-activator recruitment by TR-FRET (time-resolved fluorescence resonance energy transfer) assay. […] When receptor and coactivator are bound to each other, upon shining light at 337 nm on the sample, the Europium emits fluorescence that excites APC due to close proximity (FRET) and this signal is measured at 665 nm. Due to the long lasting fluorescence emission of Europium, the non-specific, short-lived fluorescence is time-resolved (TR) from the fluorescence of interest. Inhibitors of the interaction of receptor and coactivator peptide are detected by a decrease in TR-FRET signal.
# Specifically, in one embodiment the aforementioned assay was performed as outlined below. The assay was carried out in black polystyrene, 384-well plates in a total assay volume of 50.5 μL. The assay buffer contained 50 mM TRIS-HCL pH 7.5, 1 mM NaCl, 2 mM MgCl2, 0.5 mg/mL bovine serum albumin, and 5 mM dithiothreitol.
# RORC2 ligand binding domain (6-His-RORC2 LBD), sequence (P51449 269-508): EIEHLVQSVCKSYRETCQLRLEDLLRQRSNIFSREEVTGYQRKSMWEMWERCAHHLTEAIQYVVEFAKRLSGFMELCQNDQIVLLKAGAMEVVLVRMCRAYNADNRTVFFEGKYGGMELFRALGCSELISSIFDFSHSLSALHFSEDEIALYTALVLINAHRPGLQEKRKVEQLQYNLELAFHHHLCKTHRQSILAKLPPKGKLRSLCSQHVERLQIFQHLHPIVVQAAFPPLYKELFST
smiles,measurement,setting,value
"Cc1nn(C)c(C)c1S(=O)(=O)Nc1ccc2c(c1)c(C1CCN(C(=O)[C@H](C)C(C)(C)C)CC1)cn2C [Example 26, (R)-1,3,5-trimethyl-N-(1-methyl-3-(1-(2,3,3-trimethylbutanoyl)piperidin-4-yl)-1H-indol-5-yl)-1H-pyrazole-4-sulfonamide]",IC50,[1],5.1 nM
same,IC50,[2],1.3 nM
"C[C@@H](C(=O)N1CCC(c2cn(C)c3ccc(NS(=O)(=O)c4ccc(F)cc4)cc23)CC1)C12CC(C1)C2 [Example 31, (R)-N-(3-(1-(2-(bicyclo[1.1.1]pentan-1-yl)propanoyl)piperidin-4-yl)-1-methyl-1H-indol-5-yl)-4-fluorobenzenesulfonamide]",IC50,[1],26 nM
same,IC50,[2],2.4 nM
"COc1cc(S(=O)(=O)Nc2ccc3c(c2)c(C2CCN(C(=O)C(C)C)CC2)cn3C)ccc1F [Example 22, 4-fluoro-N-(3-(1-isobutyrylpiperidin-4-yl)-1-methyl-1H-indol-5-yl)-3-methoxybenzenesulfonamide]",IC50,[1],267 nM
same,IC50,[2],10.6 nM
"Cn1cc(C2CCN(C(=O)C3CCCC3)CC2)c2cc(NS(=O)(=O)c3ccccc3F)ccc21 [Example 17, N-(3-(1-(cyclopentanecarbonyl)piperidin-4-yl)-1-methyl-1H-indol-5-yl)-2-fluorobenzenesulfonamide]",IC50,[1],114 nM
same,IC50,[2],5.9 nM
"CC(C)[C@H](C)C(=O)N1CCC(c2cn(C)c3ccc(NS(=O)(=O)c4ccc(F)cc4)cc23)CC1 [Example 16, (S)-N-(3-(1-(2,3-dimethylbutanoyl)pipendin-4-yl)-1-methyl-1H-indol-5-yl)-4-fluorobenzenesulfonamide]",IC50,[1],53.8 nM
same,IC50,[2],3.1 nM
"C[C@H]1CN(C(=O)[C@H](C)C(C)(C)C)CC[C@H]1c1cn(C)c2ccc(NS(=O)(=O)c3ccc(F)cc3)cc12 [Example 1, 4-fluoro-N-(1-methyl-3-((3R,4R)-3-methyl-1-((R)-2,3,3-trimethylbutanoyl)piperidin-4-yl)-1H-indol-5-yl)benzenesulfonamide]",IC50,[1],13.5 nM
same,IC50,[2],8.2 nM
"CC(C)C(=O)N1CC[C@@H](c2cn(C)c3ccc(NS(=O)(=O)c4ccc(F)cc4)cc23)[C@@H](C)C1 (single isomer, unassigned) [Example 5]",IC50,[1],90.3 nM
same,IC50,[2],5.1 nM
"Cn1cc(C2CCN(C(=O)c3ccns3)CC2)c2cc(NS(=O)(=O)c3ccc(F)cc3)ccc21 [Example 6, 4-fluoro-N-(3-(1-(isothiazole-5-carbonyl)piperidin-4-yl)-1-methyl-1H-indol-5-yl)benzenesulfonamide]",IC50,[1],276 nM
same,IC50,[2],75.9 nM
